The values that follow come from ChEMBL document CHEMBL1134086, “Discovery of potent and selective phenylalanine derived CCR3 receptor antagonists. Part 2” (Bioorg Med Chem Lett, 2001).

The species named for the first test is Homo sapiens. Kind of test: Ability to block the eotaxin induced intracellular calcium mobilization in primary human eosinophils was determined. The format is functional.
What is called IC50 is the midpoint of a concentration-inhibition curve. For `O=C(N[C@@H](Cc1ccc([N+](=O)[O-])cc1)C1=NCCO1)c1cccc2ccccc12`, the 50% inhibitory concentration (IC50) turned out to be 600 nM.
Regarding `COC(=O)[C@H](Cc1ccc([N+](=O)[O-])cc1)NC(=O)c1cccc2ccccc12`, the half-maximal inhibitory concentration (IC50) was 38 nM.
Consider `C[C@H](NC(=O)[C@H](Cc1ccc(Cl)cc1)NC(=O)c1cccc2ccccc12)C(=O)Nc1ccccc1`, for which the 50% inhibitory concentration (IC50) was 15 nM.

A further test has as its target T1, C-C chemokine receptor type 3 (Homo sapiens, UniProt P51677).
T1 sequence (P51677 whole entry): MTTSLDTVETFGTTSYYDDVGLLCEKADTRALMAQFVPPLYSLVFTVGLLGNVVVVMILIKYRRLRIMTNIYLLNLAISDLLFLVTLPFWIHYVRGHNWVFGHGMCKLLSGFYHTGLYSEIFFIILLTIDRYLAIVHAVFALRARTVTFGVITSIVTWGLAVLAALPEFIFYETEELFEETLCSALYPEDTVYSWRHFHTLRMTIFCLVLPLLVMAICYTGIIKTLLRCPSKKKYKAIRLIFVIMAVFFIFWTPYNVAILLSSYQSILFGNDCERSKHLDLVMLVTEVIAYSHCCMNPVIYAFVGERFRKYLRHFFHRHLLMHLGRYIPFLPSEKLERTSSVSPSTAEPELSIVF
Kind of test: Antagonist activity against C-C chemokine receptor type 3. The format is functional.
Take `C=C(NC(=O)[C@H](Cc1ccc([N+](=O)[O-])cc1)NC(=O)c1cccc2ccccc12)C(=O)OCC`: the midpoint of inhibition, the IC50, lay at 350 nM.
Turning to `C[C@@H](NC(=O)[C@H](Cc1ccc([N+](=O)[O-])cc1)NC(=O)c1cccc2ccccc12)C(=O)OC(C)(C)C`, half-maximal inhibition (IC50) required 20 nM.
As for `C[C@H](NC(=O)[C@H](Cc1ccncc1)NC(=O)c1cccc2ccccc12)C(=O)Nc1ccc(-c2ccccc2)cc1`, the IC50 was 600 nM.
Still for that read-out and setting: in the case of `Cc1ccc(C(=O)N[C@@H](Cc2ccc(Cl)cc2)C(=O)N[C@@H](C)C(=O)Nc2ccc(Cl)cc2)c(C)c1` it was 45 nM; in that of `COc1ccc(NC(=O)[C@H](C)NC(=O)[C@H](Cc2cscn2)NC(=O)c2cccc3ccccc23)cc1`, 500 nM; in that of `O=C(N[C@@H](Cc1ccc([N+](=O)[O-])cc1)c1nccs1)c1cccc2ccccc12`, 32000 nM.
For the compound `O=C(N[C@@H](Cc1ccc([N+](=O)[O-])cc1)c1nc(C(=O)N2CCc3ccccc3C2)cs1)c1cccc2ccccc12`, inhibition was half-maximal at 12500 nM (IC50).
Turning to `O=C(Nc1ccccc1)c1csc([C@H](Cc2ccc([N+](=O)[O-])cc2)NC(=O)c2cccc3ccccc23)n1`, half-maximal inhibition (IC50) was put at 7700 nM.
With `C[C@H](NC(=O)[C@H](Cc1ccc([N+](=O)[O-])cc1)NC(=O)c1cccc2ccccc12)C(=O)Nc1ccccc1`, the IC50 is 190 nM.
As to `COc1ccc(NC(=O)[C@H](C)NC(=O)[C@H](Cc2ccncc2)NC(=O)c2cccc3ccccc23)cc1`, the IC50 was over 1220 nM.
The compound `CCOC(=O)[C@@H](C)NC(=O)[C@H](Cc1ccc([N+](=O)[O-])cc1)NC(=O)c1cccc2ccccc12` had an IC50 of 3 nM.
`O=C(N[C@@H](Cc1ccc([N+](=O)[O-])cc1)C(=O)N[C@H](C(=O)Nc1ccccc1)c1ccccc1)c1cccc2ccccc12` registered an IC50 of 116 nM.
In the case of `C[C@H](NC(=O)[C@H](Cc1ccc(Cl)cc1)NC(=O)c1cccc2ccccc12)C(=O)Nc1cccnc1`, the 50% inhibitory concentration (IC50) worked out at 27 nM.
Compound `O=C(N[C@@H](Cc1ccc([N+](=O)[O-])cc1)C1=NCCO1)c1cccc2ccccc12` registered an IC50 of 563 nM.
`O=C(CNC(=O)[C@H](Cc1ccc([N+](=O)[O-])cc1)NC(=O)c1cccc2ccccc12)Nc1ccccc1` showed an IC50 of 400 nM.
Same read-out and setting: in the case of `CCOC(=O)C1COC([C@H](Cc2ccc([N+](=O)[O-])cc2)NC(=O)c2cccc3ccccc23)=N1` (some centres not stated) it was 213 nM; in that of `COc1ccccc1NC(=O)[C@H](C)NC(=O)[C@H](Cc1ccc(C#N)cc1)NC(=O)c1cccc2ccccc12`, 125 nM; in that of `CCNC(=O)C(C)NC(=O)[C@H](Cc1ccc([N+](=O)[O-])cc1)NC(=O)c1cccc2ccccc12` (some centres not stated), 666 nM.
Compound `C[C@H](NC(=O)[C@H](Cc1cscn1)NC(=O)c1cccc2ccccc12)C(=O)Nc1ccc(Cl)cc1` returned an IC50 of 800 nM.
Take `C[C@@H](C(=O)Nc1ccccc1)N(C)C(=O)[C@H](Cc1ccc([N+](=O)[O-])cc1)NC(=O)c1cccc2ccccc12`: the midpoint of inhibition, the IC50, lay at 65 nM.
In turn, `CC(NC(=O)[C@H](Cc1ccc([N+](=O)[O-])cc1)NC(=O)c1cccc2ccccc12)C(=O)NCc1ccccc1` (some centres not stated) registered an IC50 of 300 nM.
In turn, `COc1ccc(NC(=O)[C@H](C)NC(=O)[C@H](CC2CCCCC2)NC(=O)c2cccc3ccccc23)cc1` returned an IC50 of 700 nM.
`CC(NC(=O)[C@H](Cc1ccc([N+](=O)[O-])cc1)NC(=O)c1cccc2ccccc12)C(=O)N1CCCC1` (some centres not stated) had an IC50 of 1130 nM.
For the compound `CCOC(=O)c1csc([C@H](Cc2ccc([N+](=O)[O-])cc2)NC(=O)c2cccc3ccccc23)n1`, half-maximal inhibition (IC50) was put at 663 nM.
`CCOC(=O)[C@H](C)NC(=O)[C@H](Cc1ccc([N+](=O)[O-])cc1)NC(=O)c1cccc2ccccc12`: the IC50 came to 383 nM.
Still for that read-out and setting: the same measure for `COc1ccc(NC(=O)[C@H](C)NC(=O)[C@H](Cc2ccc(Cl)cc2)NC(=O)c2cccc3ccccc23)cc1`: 45 nM; for `CCOC(=O)c1coc([C@H](Cc2ccc([N+](=O)[O-])cc2)NC(=O)c2cccc3ccccc23)n1`: 500 nM.
For `COc1ccc(C[C@H](NC(=O)c2cccc3ccccc23)C(=O)N[C@@H](C)C(=O)Nc2ccccc2OC)cc1`, half-maximal inhibition (IC50) was put at 15 nM.
In turn, `COc1ccc(C[C@H](NC(=O)c2cccc3ccccc23)C(=O)N[C@@H](C)C(=O)Nc2ccc(C#N)cc2)cc1` returned a half-maximal inhibitory concentration (IC50) of 250 nM.
`CCNC(=O)c1csc([C@H](Cc2ccc([N+](=O)[O-])cc2)NC(=O)c2cccc3ccccc23)n1` displayed an IC50 of 18000 nM.
As for `COc1ccc(NC(=O)[C@H](C)NC(=O)[C@H](Cc2ccc(C#N)cc2)NC(=O)c2cccc3ccccc23)cc1`, the IC50 came to 90 nM.
Still for that read-out and setting: in the case of `C[C@H](NC(=O)[C@H](Cc1ccc(Cl)cc1)NC(=O)c1cccc2ccccc12)C(=O)Nc1ccccc1` it was 5 nM; in that of `C[C@H](NC(=O)[C@H](Cc1ccc([N+](=O)[O-])cc1)NC(=O)c1cccc2ccccc12)C(=O)N(C)c1ccccc1`, 600 nM; in that of `O=C(N[C@@H](Cc1ccc([N+](=O)[O-])cc1)c1cnco1)c1cccc2ccccc12` (racemic), 22500 nM.
The compound `O=C(N[C@@H](Cc1ccc([N+](=O)[O-])cc1)c1nnco1)c1cccc2ccccc12` (racemic) displayed an IC50 of over 33000 nM.
Turning to `O=C(N[C@@H](Cc1ccc([N+](=O)[O-])cc1)c1ncco1)c1cccc2ccccc12` (racemic), the half-maximal inhibitory concentration (IC50) is over 33000 nM.
The compound `CCn1ccnc1[C@H](Cc1ccc([N+](=O)[O-])cc1)NC(=O)c1cccc2ccccc12` (racemic; form 1) returned an IC50 of over 33000 nM.
As to `CCn1ccnc1[C@H](Cc1ccc([N+](=O)[O-])cc1)NC(=O)c1cccc2ccccc12` (racemic; form 2), the 50% inhibitory concentration (IC50) was over 33000 nM.
`CCn1ccnc1[C@H](Cc1ccc([N+](=O)[O-])cc1)NC(=O)c1cccc2ccccc12` (racemic; form 3): the IC50 was 17000 nM.
